Test results published in patent publication US20210275624A1, “TREATMENTS FOR IMPROVING OR LESSENING IMPAIRMENT OF MITOCHONDRIAL FUNCTION” (priority 2020, published 2021).
Square brackets hold non-standard residues; d marks the D form. Peptide text beside a SMILES is read from it. Cya = N[C@@H](CS(=O)(=O)O)C(=O)O

What was measured:
[1] = test system: human RPE cells; assay: Flow cytometry (Annexin V / 7-AAD) cell death and light-microscopy morphology; type: cell-based
Procedure: Human donor eyes from a donor were obtained within 24 hrs. after death from the North Carolina Organ Donor and Eye Bank, Inc. (Winston-Salem, N.C., USA) in accordance with the provisions of the Declaration of Helsinki for research involving human tissue. Cells were grown in Eagle's minimal essential medium (MEM; Invitrogen) with 10% fetal bovine serum (FBS; Thermo Scientific) and with 1× penicillin/streptomycin (Thermo Scientific) at 37° C. in a humidified environment containing 5% CO2.
(§1) Human donor RPE cells were seeded on collagen-coated 96-well plates, 24-well plates with or without coverslips, 6-well plates (Corning-Costar Incorporated, Corning, N.Y., USA). Except for the Seahorse assay, on day 6 after plating, cells were washed twice with serum-free and phenol red-free MEM (SF-MEM), treated with HQ at a various concentrations in the presence or absence of RSG (0.4 mM) in SF-MEM for various times at 37° C. RSG co-treatment refers to the condition in which cells were treated with RSG in the presence of HQ. Control refers to the condition in which cells were not treated.
RPE cells in triplicate wells of a 6-well plate were treated with HQ (150 μM) in the presence or absence of RSG (0.4 mM) for 12 hours. Cell morphology was recorded by light microscopy, and then cells were detached with 1×TrypLE and centrifuged at 300 g for 5 minutes. Cells were re-suspended with 100 μL 1×Annexin V binding buffer, incubated with 5 μL Annexin V for 10 minutes and then 5 μL 7-AAD was added to the Annexin V mixture and incubated for additional 5 minutes. Cell death was analyzed with flow cytometry.

[2] = test system: human RPE cells; assay: Determination of Δψm (JC-1 dye); type: cell-based
Procedure: as §1, with “treated. RPE cells in triplicate wells of 96-well black plates with clear bottoms were washed with SF-MEM, loaded with 10 μM JC-1 dye in SF-MEM for 30 minutes at 37° C. and then washed twice. Cells were then treated with HQ (160 μM) with or without RSG (0.4 mM). A fluorescence plate reader was used to measure the fluorescence at various times to quantify green JC-1 monomer (490-nm excitation, 522-nm emission) and red JC-1 aggregates (535-nm excitation, 590-nm emission).” for “treated.”

[3] = test system: human RPE cells; assay: F-actin immunofluorescent staining (phalloidin), aggregate quantification; type: cell-based; conditions: 6 hours
Procedure: Human donor RPE cells were seeded on collagen-coated 96-well plates, 24-well plates with or without coverslips, 6-well plates (Corning-Costar Incorporated, Corning, N.Y., USA). Except for the Seahorse assay, on day 6 after plating, cells were washed twice with serum-free and phenol red-free MEM (SF-MEM), treated with HQ at a various concentrations in the presence or absence of RSG (0.4 mM) in SF-MEM for various times at 37° C. RSG co-treatment refers to the condition in which cells were treated with RSG in the presence of HQ. Control refers to the condition in which cells were not treated. RPE cells in triplicate wells of a 24-well plate containing collagen-coated coverslips were treated for 6 hours with HQ (140 μM) in the presence or absence of RSG (0.4 mM) and then fixed in 4% paraformaldehyde for 12 minutes at room temperature (RT). Cells were permeabilized with 0.5% Triton X-100 for 12 minutes and incubated for 1 hour at RT with phalloidin-TRITC in 0.5% bovine serum albumin/0.1% Triton X-100/PBS. The percentage of F-actin aggregates was determined by a masked observer. […] For data analysis, segmented images were converted to eight-bit, binary images and F-actin aggregates were quantified using the particle analyzer function (0-infinity size and 0-1 circularity) in Fiji.

[4] = test system: HMOX-1; assay: Real-time RT-PCR (qPCR) of HMOX-1; type: cell-based, human; conditions: 4 hours
Procedure: RPE cells in triplicate wells of a 12-well plate were treated with HQ (250 μM) in the presence or absence of RSG (0.4 mM) for 4 hours. Total RNA was isolated using RNeasy Plus Mini Kit according to the manufacturer's specifications and real-time quantitative reverse transcription-polymerase chain reaction (qPCR) was performed as we have described previously. Primer pairs for HMOX-1 and ribosomal protein, large, PO (RPLPO) were as follows (5′ to 3′): HMOX-1, forward: CAG GAG CTG ACC CAT GA; reverse: AGCAACTGTCGCCACCAGAA; RPLPO, forward: GGACATGTTGCTGGCCAATAA; reverse: GGG CCC GAG ACC AGT GTT.

Structure (SMILES)	cell morphology ([1]; HQ 150 μM)	cell death (necrosis, apoptosis) ([1]; HQ alone 150 μM, 12 hours)	Δψm ([2]; HQ 160 μM vs control)	number of F-actin aggregates ([3]; HQ 140 μM, vs control)	HMOX-1 gene level (qPCR) ([4]; HQ 250 μM)	cell morphology ([1]; RSG 0.4 mM co-treatment with HQ 150 μM)	HQ-induced necrosis and apoptosis (cell death) ([1]; RSG 0.4 mM co-treatment with HQ 150 μM, 12 hours)	number of live and dead cells ([1]; RSG alone 0.4 mM, 12 hours, vs control)	Δψm (mitochondrial membrane potential) ([2]; RSG 0.4 mM co-treatment with HQ 160 μM)	F-actin aggregates ([3]; RSG 0.4 mM co-treatment with HQ 140 μM)	HMOX-1 gene level (qPCR) ([4]; RSG 0.4 mM co-treatment with HQ 250 μM)
Oc1ccc(O)cc1 [HQ, hydroquinone, reference compound]	caused cells to shrivel/detach	induced primarily necrotic cell death and much less apoptotic cell death	significantly decreased	significantly increased the number of F-actin aggregates	significantly up-regulated						
C[C@@H](O)[C@H](NC(=O)[C@H](CS(=O)(=O)O)NC(=O)CNC(=O)[C@H](CCCNC(=N)N)NC(=O)CN)C(=O)N1CCC[C@H]1C(=O)O [Risuteganib, Glycyl-L-arginylglycyl-3-sulfo-L-alanyl-L-threonyl-L-proline] (H-GRG[Cya]TP-OH)						improved HQ-induced morphological changes	significantly protected cells from HQ-induced necrosis and apoptosis	little effect	significantly improved HQ-mediated reduction in Δψm	significantly inhibited the production of HQ-induced aggregates	further up-regulated
